Laboratory results from patent US11040958B2, “Triazole antimicrobial derivative, pharmaceutical composition and use thereof” (priority 2017, dated 2021).

Key:
[1] = In vitro metabolic stability in human intestinal S9; type: in vitro ADME; conditions: human, intestinal S9; 37°C, S9 1 mg/mL, compound 10 μM, NADPH regeneration system; read-out: Human intestinal S9 T1/2
[2] = In vitro metabolic stability in rat plasma; type: in vitro ADME; conditions: rat, plasma; 37°C, compound 10 μM; read-out: Rat plasma T1/2
[3] = In vitro metabolic stability in rat intestinal S9; type: in vitro ADME; conditions: rat, intestinal S9, pH 7.4; 37°C, S9 1 mg/mL, compound 10 μM, NADPH regeneration system; read-out: Rat intestinal S9 T1/2
[4] = Solid stability test (25°C, RH 60%, 30 days); type: physicochemical; conditions: 25°C±2°C, relative humidity 60%±2%
[5] = Pharmacokinetics after single intravenous administration in rats (plasma voriconazole); conditions: both, SD, rat, in vivo, iv, 2.5 mg/kg
Method in brief: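 SD rats (180–220 g, 3 male/3 female per group) given single tail-vein dose of 2.5 mg/kg (as voriconazole). Plasma voriconazole measured in blood sampled at multiple time points post-dose.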

[6] = system: Candida albicans ATCC10231; experiment: Systemic fungal infection in mice, administration by gavage, survival; type: in vivo; conditions: ICR mice, 5 mg/kg (calculated as voriconazole) once daily for 5 days
Method in brief: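 Male ICR mice (18-22 g) infected via tail vein with C. albicans ATCC10231 at 5*10^6/ml, 0.1 ml/10 g. Starting 2 h post-infection, 5 mg/kg (as voriconazole) given by gavage once daily for 5 days; saline for model group. Groups of 10; survival time recorded over 7 days.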

CC(OC(=O)SCCO)[n+]1cnn(C[C@](O)(c2ccc(F)cc2F)[C@@H](C)c2ncncc2F)c1 (stereo partly shown) [Compound 16037]
half-life at 10 µM [1]: 10.8 ± 1.97 min | half-life at 10 µM [2]: 7.65 ± 0.78 min | half-life at 10 µM [3]: 16 ± 6.88 min | Content increase of total impurity (25° C., placed for 30 days) [4]: 2.15% | AUClast [5]: 9120 ± 3254 ng·h/mL | T1/2 [5]: 148 ± 45 min | survival rate of mice, day 1 ([6]; day 1): 100% | survival rate of mice, day 2 ([6]; day 2): 100% | survival rate of mice, day 3 ([6]; day 3): 100% | survival rate of mice, day 4 ([6]; day 4): 100% | survival rate of mice, day 5 ([6]; day 5): 90% | survival rate of mice, day 6 ([6]; day 6): 80% | survival rate of mice, day 7 ([6]; day 7): 80%
